According to patent publication US20100034746A1, “ANIMAL MODEL, SYSTEM, AND METHOD FOR SCREENING COMPOUNDS FOR ANTI[…]/OR TH[…]” (Piramal Life Sciences Limited, priority 2007, published 2010):

Tests used:
[1] = system: thrombus formation; experiment: Cross-circulation thrombosis model, cannulae connected with latex tubing; survival time of recipient after blocking trachea; type: in vivo, Wistar rats; conditions: cannula with latex tubing; for Survival time of the recipients, result in words: compared with vehicle/saline treated control animals; for Survival time (min) Mean ± S.E.: recipient rat
Description: Wistar rats (either sex; weighing 290-310 g) were used throughout the experiments. Animals were housed and cared for in accordance with the Guidelines in force published by CPCSEA (Committee for the Purpose of Control and Supervision of Experiments on Animals), Tamil Nadu, India. Procedures using laboratory animals were approved by the IAEC (Institutional Animal Ethics Committee) of the Research Centre of Nicholas Piramal India Limited, Mumbai, India.
In one experiment a pair of rats were anesthetized using urethane (1.5 g/kg; Fluka) by intra-peritoneal administration. After anesthetization, one of the jugular veins and carotid arteries of each of the rats were exposed and clamped. Polyethylene cannulae (0.76 mm ID and 1.22 mm OD, polyethylene tubing, each 6.0 cm in length; Portex Ltd) filled with normal saline (0.9%, w/v, sodium chloride, Merck) were introduced into these vessels and secured tightly by tying with cotton thread (No. 40, Madura Coats Ltd., India). Furthermore, trachea of any one of the rats was exposed and a piece of thread was put loosely around it (recipient). Then the arterial cannula of one of the rats was connected to the venous cannula of the other rat and vice versa, using 2.5 cm long piece of latex tubing (0.89 mm ID; PharMed, Cole-Parmer). FIG. 1 schematically illustrates these rats.
The experiment was initiated by opening the clamps on all the vessels, which initiated cross circulation of blood between the two animals. […] FIG. 2 schematically illustrates these rats.
Survival was monitored by the animal's effort to respire.
In another experiment, pairs of rats were treated with antithrombotic/thrombolytic agents selected from the following list:
The drug suspensions for oral use were prepared in the vehicle, carboxymethyl cellulose (CMC, 0.5% w/v, Sigma), using polyoxyethylenesorbitan monooleate (Tween 80, Sigma) as a wetting agent. Commercially available streptokinase solution was diluted with normal saline to an appropriate concentration for the i.v. use.
Vehicle/drugs were administered to rats orally at the doses mentioned above, in a volume of 1 ml/kg. With the exception of streptokinase, all other drugs were administered once daily for three consecutive days and the experiment was performed on the third day, one hour after the administration of the last dose. The vehicle-treated animals were used as controls.
Streptokinase was administered as a continuous infusion at a dose of 60,000 I.U./ml/kg/hour intravenously, through the femoral vein of the recipient and was administered only on the day of experiment. As a source of plasminogen, human plasma was injected to the animal intravenously at a dose of 1 ml/kg, just before blocking the trachea. Streptokinase infusion was initiated two minutes after blocking the trachea of the recipient. Saline-infused animals were used as control for streptokinase-treated animals.
(§1) The survival time of the recipients in the abovementioned experiments was recorded.

[2] = system: thrombus formation; experiment: Cross-circulation thrombosis model, cannulae connected with damaged rat thoracic aorta; survival time of recipient after blocking trachea; type: in vivo, Wistar rats
Description: In the present experiment, the piece of latex tubing used in Example 1 was replaced by a piece of rat thoracic aorta with damaged endothelium, so that the anti-thrombotic effect of the compounds could be studied in a near natural situation.
Maintenance of a patent vasculature is critical to provide blood flow to dependent tissues. […] Following vessel injury, active hemostasis results from vasoconstriction, adherence of activated platelets to damaged endothelium, their aggregation and activation of coagulation enzymes, finally resulting into thrombosis. It has been shown that chronic carbon tetrachloride treatment to rats causes serious damage to vascular endothelial cells and thus the blood vessels get damaged. It was thought of using these damaged vessels, instead of latex tubing (used in Example 1), to connect arterial and venous cannulae of donor and recipient, in order to mimic the physiological process of thrombus formation.
They were administered carbon tetrachloride (Fluka) in olive oil (Figaro, Spain) (1:1 v/v), 0.5 ml/kg, intraperitoneally, twice a week for eight continuous weeks. […]
In spite of the blocked trachea, the recipient survived, as long as the oxygenated blood supply from the donor continued. Survival was monitored by the animal's effort to respire. […]
as §1

[3] = 20 mg/kg p.o. once daily for three days, 1 h after last dose, CMC control 10.9 ± 0.70

| Compound | Survival time of the recipients, result in words [1] | Survival time (min) Mean ± S.E. [1, 3] | also measured |
| --- | --- | --- | --- |
| CC(=O)Oc1ccccc1C(=O)O [Aspirin, acetylsalicylic acid] | Significant increase in the survival time | – | Survival time (min) Mean ± S.E. ([1]; 20 mg/kg p.o. once daily for three days, 1 h after last dose, CMC control 10.9 ± 0.70, 20 mg/kg): 45.3 ± 4.40 min; Survival time of the recipient, result in words ([2]; cannula with damaged blood vessel, compared with appropriate control animals): Significant increase in the survival time; Survival time (min) Mean ± S.E. ([2]; recipient rat, cannula with damaged thoracic aorta, 20 mg/kg p.o. once daily for three days, CMC control 5.18 ± 0.99): 33.9 ± 4.58 min |
| COC(=O)[C@H](c1ccccc1Cl)N1CCc2sccc2C1 [Clopidogrel, Clopidogrel bisulphate] | – | 47.8 ± 3.78 min | – |
| OCCN(CCO)c1nc(N2CCCCC2)c2nc(N(CCO)CCO)nc(N3CCCCC3)c2n1 [Dipyridamole] | – | 38.5 ± 1.55 min | – |
| Streptokinase | significant prolongation of the survival time | – | Survival time (min) Mean ± S.E. ([1]; 60,000 IU/ml/kg/hr i.v. continuous infusion, human plasma 1 ml/kg i.v., saline control 10.4 ± 0.91): 89.5 ± 10.55 min |
